Experiment [1] concerns EGF receptor (EGFR) phosphorylation in REC11 cells. Kind of experiment: Western blot of phosphorylated EGFR in REC11 cystic cells. The experiment is classed as cell-based, mouse. As to conditions: 10 μM. An excerpt:
REC11 cystic cell line is a conditionally immortalized epithelial collecting tubule (CT) cell line derived from the cystic kidneys of the BPK mouse model of human ARPKD crossed to the ImmortoMouse. The BPK mouse as a human ARPKD model has been described in Nauta J. et al., Pediatr Nephrol 1993, 7:163-172 and Nauta J. et al., Pediatr Res 1995, 37:755-763. The procedures for immortalization, cell isolation, cell culture and the complete phenotypic characterization of this cell line have been described in detail in Sweeney W. E. et al., Am J Physiol C Physiol 2001, 281:C1695-705. All analysis and experiments were performed on REC11 cells grown for a minimum 6 days under non-permissive conditions to eliminate residual Large T. REC12 cell line is a conditionally immortalized epithelial collecting tubule (CT) cell line derived from the wild-type Balb/C littermates. The Balb/C is the strain of mice in which the BPK mutation arose (Nauta J. et al., Pediatr Nephrol 1993, 7:163-172 and Nauta J. et al., Pediatr Res 1995, 37:755-763).
REC11 cells (FIG. 2, lanes A and B) and control renal epithelial cells (REC12 cells: FIG. 2, lanes C and D) were grown for 10 days. Next, the cells were exposed to vehicle (lanes A and C) or 10 μM HET0016 (lanes B and D) and then harvested for assessment of the expression of phosphorylated EGFR by Western Blot analysis.

For experiment [2], the system named is cystic BPK renal epithelial cells. Description: Cell counting of cystic BPK renal epithelial cells. The format is cell-based, mouse. As to conditions: 10 μM added daily, day 2, non-permissive conditions. The procedure: (§1) For the cell counting experiments, the non-cystic Balb/C (+/+) and cystic BPK renal epithelial cells were seeded in 6-well dishes and changed into media lacking γ-IFN at 37° C. (non-permissive conditions) for at least 6 additional days prior to assessing any phenotypic analyses to ensure the loss of the T antigen (Sweeney W E et al. Am J Physiol Cell Physiol, 281:C1695-705, 2001). Cells were harvested by tryptic digestion and counted by light microscopy using a hemocytometer.
(§2) The cells in this experiment were transduced using the lentiviral vectors in the presence of γ-IFN (i.e., permissive state) and allowed to expand. Once the cells were expanded, the transduced cells were grown in the absence of γ-IFN (i.e., non-permissive state) for 10 days. The cells were harvested and counted to initiate the proliferation experiment.

In another experiment the target is T1, Cyp4a12 (Mus musculus, UniProt Q91WL5).
T1 construct: Murine full-length Cyp4a10 (cDNA clone MGC:58977) and Cyp4a12 (cDNA clone MGC:25972) cDNA clones were purchased from ATCC; expressed in transfected cells; host or cells: conditionally immortalized non-cystic Balb/C (+/+) mouse renal epithelial cells transduced with the lentiviral vector pHR(+)c.Ub.CYP4A12.R(-)W(+); protein lysates
T1 sequence (Q91WL5 38-508): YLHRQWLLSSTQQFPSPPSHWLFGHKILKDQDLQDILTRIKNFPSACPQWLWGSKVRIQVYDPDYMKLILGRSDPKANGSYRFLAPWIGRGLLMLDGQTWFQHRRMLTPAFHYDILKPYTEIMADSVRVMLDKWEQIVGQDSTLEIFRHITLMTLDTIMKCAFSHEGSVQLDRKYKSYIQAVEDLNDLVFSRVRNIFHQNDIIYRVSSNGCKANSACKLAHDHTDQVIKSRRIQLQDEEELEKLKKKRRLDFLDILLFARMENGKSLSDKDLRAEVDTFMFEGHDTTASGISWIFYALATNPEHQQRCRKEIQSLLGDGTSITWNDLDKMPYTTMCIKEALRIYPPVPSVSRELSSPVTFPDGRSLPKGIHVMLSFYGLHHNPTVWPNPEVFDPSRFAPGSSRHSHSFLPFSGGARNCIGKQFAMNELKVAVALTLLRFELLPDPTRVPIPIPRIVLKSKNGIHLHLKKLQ
Kind of experiment: 20-HETE production assay with lysates of Cyp4a12 over-expressing Balb/C cells. The experiment is classed as biochemical, murine. As to conditions: 1 μM during the 20-HETE production assay. The procedure: Microsomes were isolated from the cystic BPK and non-cystic Balb/C mouse kidneys as described by Ito O et al. (Am J Physiol Regul Integr Comp Physiol, 280:R822-30, 2001). For the BPK and Balb/C cells, protein lysates were harvested by homogenization and subsequent sonication of the cell pellets. For the 20-HETE production assay, the isolated protein (500 μg) was incubated in 0.5 mL of 100 mM potassium phosphate buffer containing 40 μM cold arachidonic acid and 2 mM NADPH. In some samples, the 20-HETE synthesis inhibitor, HET-0016, was added at a concentration of 1 μM. The reaction was incubated at 37° C. and equilibrated with 100% O2 for 30 minutes. The reaction was stopped by acidification to pH 3.5 with 1M formic acid. The lipids were extracted in the presence of 20-HETE-d6 (2 ng) using 3:1 ethyl acetate:water and dried down under nitrogen. The samples were reconstituted in 1:1 methanol:water and the production of 20-HETE was measured using a liquid chromatograph-triple quadrupole mass spectrometer (ABI 3000, Applied Biosystems, Inc., Foster City, Calif.) as described in Williams J M et al. Hypertension, 49:687-94, 2007.
The functional activity of the cytochrome P450 4A isoforms was determined using liquid chromatography coupled to mass spectrometry in the 20-HETE production assay (FIG. 7B). […]

Experiment [3] concerns Cyp4a12-expressing Balb/C cells. Kind of experiment: Cell counting of Cyp4a12-transduced non-cystic Balb/C cells. The format is cell-based, mouse. As to conditions: 10 μM. The procedure: as §1, §2
There was no significant difference (P>0.05) between Balb/C cells treated with vehicle or the EGFP-transduced lentiviral vectors.

The next experiment concerns cystic BPK cells. Description: BrdU incorporation in cystic BPK cells. The format is cell-based, mouse. To be noted: 36 hours, vehicle 118. As for the experimental part:
To determine the level of proliferation in the cystic BPK cells, chemically dissimilar inhibitors of cytochrome P450 4A (CYP4A) and 4F (CYP4F) inhibitors, specifically HET-0016 (10 and 20 μM) and DDMS (10 μM), were incubated for 36 hours with the BPK cells. Three hours prior to the harvesting of the cells, 5-bromo-2′-deoxyuridine (BrdU) at a concentration of 30 μM was added to determine the level of cell cycle inhibition. The cells were subsequently methanol fixed and BrdU-positive cells were identified by immunohistology with biotinylated monoclonal anti-BrdU antibody (Zymed, South San Francisco, Calif.). Data were expressed as the percentage of BrdU-labeled cells per 500 counted cells.

A further experiment relates to 20-HETE. To be noted: cited from earlier work.

We go through one substance from patent publication US9511072B2, “Methods of modulating cell proliferation and cyst formation in polycystic kidney and liver diseases” (The Medical College of Wisconsin, Inc., priority 2006, dated 2016).

Turning to “N-hydroxy-N-(4-butyl-2-methylphenyl)-formamidine [HET0016]”, in experiment [1], the “phosphorylation of EGFR” value was “reduced the phosphorylation of EGFR”. For the same substance, the “number of cystic BPK cells” value in experiment [2] is reported as 40,744±4,322. Also, the “inhibition of 20-HETE synthesis by over-expressed Cyp4a12” value against Cyp4a12 was more than 70%. Also, the “increased cell proliferation of Balb/C cells over-expressing Cyp4a12” value in experiment [3] is reported as “completely abolished the increased cell proliferation”. In addition, the “number of Cyp4a12-expressing Balb/C cells” value in experiment [3] (day 3, without inhibitor 285,792±21,892) was 49,700±5,085. Besides, the “BrdU-positive cells per 500 total cells counted” value is 52 BrdU(+) cells in the experiment on cystic BPK cells (10 μM) and 38 BrdU(+) cells in the experiment with cystic BPK cells (20 μM). The “20-HETE levels in vivo” value with 20-HETE is given as “reduce 20-HETE levels in vivo”.
